From patent US11685710B2, “Cationic sulfonamide amino lipids and amphiphilic zwitterionic amino lipids” (The Board of Regents of the University of Texas System, priority 2016, dated 2023)
Entries after “also recorded” stand apart in the source; their conditions may differ.

Key:
[1] = Nanoparticle size by dynamic light scattering; type: physicochemical; conditions: Luc mRNA NPs, varied PEG-lipid
Protocol: Nanoparticle property characterization: Physical properties were measured using a Zetasizer Nano ZS (Malvern) with an He—Ne laser (λ=632 nm). Particle sizes were measured by dynamic light scattering (DLS) (5 measurements, 3 runs×10 seconds, automatic attenuator setting) by 173° back scattering. Zeta potential was measured in a folded capillary cell (Malvern) with samples diluted in PBS for ZAL NPs or citrate phosphate buffer pH 7.4 for CSAL NPs.
Physical properties were measured using a Zetasizer Nano ZS (Malvern) with an He—Ne laser (λ=632 nm). Particle sizes were measured by dynamic light scattering (DLS) (5 measurements, 3 runs×10 seconds, automatic attenuator setting) by 173° back scattering. Zeta potential was measured in a folded capillary cell (Malvern) with samples diluted in PBS for ZAL NPs or citrate phosphate buffer pH 7.4 for CSAL NPs.

IGROV1 cells = experiment: mRNA delivery in vitro assay (luciferase / mCherry mRNA); type: cell-based, human
Protocol: ZAL mRNA delivery in vitro assay: ZAL nanoparticles with firefly luciferase mRNA (Tri-Link Biotechnologies) were prepared using the in vitro nanoparticle formulation method outlined above. IGROV1 cells were seed in white opaque 96-well tissue culture plates at a seeding density of 5×10^3 cells per well in 100 μL RPMI 1640 medium supplemented with 5% FBS, and allowed to attach overnight. After overnight incubation, and additional 100 μL medium was added to the wells. The ZAL:mRNA nanoparticles were prepared at a ZAL:mRNA weight ratio of 20:1, 10:1, 7.5:1 and 5:1, and lipid mixture molar compositions of 50:38.5 ZAL:cholesterol, with PEG lipid supplemented at a molar ratio of 5%, 2%, 1% or 0.5% at each weight ratio. The ZAL-mRNA nanoparticles were added to the cells at a dose of 100 ng mRNA per well and incubated for the indicated time (ranging from 6 h to 48 h), after which time cell viability and luciferase expression were evaluated with the ONE-Glo+Tox Assay cell viability and luciferase assay (Promega) and normalized to untreated cells (N=4+/−standard deviation)
ZNPs with mRNA (Tri-Link Biotechnologies) were prepared using the in vitro nanoparticle formulation method outlined above. IGROV1 cells were seeded in white opaque 96-well tissue culture plates at a seeding density of 5×10^3 cells per well in 100 μL RPMI 1640 medium supplemented with 5% FBS, and allowed to attach overnight. After overnight incubation, an additional 100 μL medium was added to the wells. The ZAL:mRNA nanoparticles were prepared at ZAL:mRNA weight ratios of 20:1, 10:1, 7.5:1 and 5:1, and lipid mixture molar compositions of 50:38.5:n ZAL:cholesterol:PEG-lipid, where n=5, 2, 1, and 0.5 at each weight ratio. The ZAL-mRNA nanoparticles were added to the cells at the appropriate mRNA dose and incubated for the indicated time (ranging from 6 h to 48 h), after which time cell viability and luciferase expression were evaluated with the ONE-Glo+Tox Assay (Promega) and normalized to untreated cells (N=4+/−standard deviation).

HeLa-Luc-Cas9 cells = experiment: sgRNA delivery to HeLa-Luc-Cas9 cells (luciferase editing, ONE-Glo+Tox); type: cell-based
Protocol: sgRNA delivery to HeLa-Luc-Cas9 cells: Select ZALs were evaluated in the delivery of single guide RNA (sgRNA) to HeLa-Luc-Cas9 cells. In a white opaque 96-well plate tissue culture plate, HeLa-Luc-Cas9 cells were seeded at a density of 5×10^3 cells per well in 100 μL growth medium (DMEM without phenol red, 5% FBS), and allowed to attach overnight and then supplemented with an additional 100 μL DMEM. ZALs-sgRNA nanoparticles were formulated using the in vitro nanoparticle formulation protocol at the indicated lipid composition and weight ratio (maintaining 50:38.5 ZAL:cholesterol mole ratio, tuningPEG-lipid additive from 5% to 0.5%, and tuning weight ratio from 20:1 ZAL:sgRNA to 5:1 ZAL:sgRNA). Luciferase deletion was evaluated using a single guide RNA designed against luciferase using the CRISPR.mit.edu algorithm, while non-targeting control sgRNA (sgScr) was used as a negative control. The nanoparticles were added to the cells at a dose of 50 ng sgRNA per well and incubated with the cells for 24 h or 48 h. RNAiMax (Invitrogen) formulated according to the manufacturer's protocol with sgLuc or sgScr was used as a positive control. After 24 h or 48 h, the cell viability and luciferase expression were evaluated with the ONE-Glo+Tox Assay cell viability and luciferase assay (Promega).
Select ZALs were evaluated in the delivery of single guide RNA (sgRNA) to HeLa-Luc-Cas9 cells. In a white opaque 96-well plate tissue culture plate, HeLa-Luc-Cas9 cells were seeded at a density of 5×10^3 cells per well in 100 μL growth medium (DMEM without phenol red, 5% FBS), and allowed to attach overnight and then supplemented with an additional 100 μL DMEM. ZNPs encapsulating sgRNA were formulated using the in vitro nanoparticle formulation protocol at the indicated lipid composition and weight ratio (maintaining 50:38.5 (ZAL:cholesterol mole ratio), tuning PEG-lipid additive from 5% to 0.5%, and tuning weight ratio from 20:1 ZAL:sgRNA to 5:1 ZAL:sgRNA). Non-targeting control sgRNA (sgCtrl) was used as a negative control. The nanoparticles were added to the cells at the appropriate dose of sgRNA and incubated with the cells for 48 h. The cell viability and luciferase expression were evaluated with the ONE-Glo+Tox Assay (Promega), normalized to untreated cells (N=4+/−standard deviation).

[2] = PEG 2%, 1%, 0.5%, ZAL:sgRNA 20:1, 10:1, 7.5:1, 5:1, 7.4 nM, 48 h

For `CCCCCCCCC(O)CN(CCC(=O)NCC[N+](C)(C)CCCS(=O)(=O)[O-])CCN(CCN(CC(O)CCCCCCCC)CC(O)CCCCCCCC)CCN(CC(O)CCCCCCCC)CC(O)CCCCCCCC` (stereo not shown) [ZA3-Ep10], the “change in ZNP size versus PEG lipid ratio” value [1] was “modest change”, the “delivery efficacy of mRNA versus PEG lipid ratio” value (IGROV1 cells; PEG-lipid 5, 2, 1 or 0.5 in lipid mix) was “decreased with higher PEG lipid ratios” and the “luciferase expression versus mRNA dose” value (IGROV1 cells; luciferase mRNA (~2,000 nt), IGROV1 cells) was “dose-dependent”. The “mRNA dose required for high expression” value (IGROV1 cells; luciferase mRNA, IGROV1 cells) was less than 600 pM, the mCherry expression (IGROV1 cells; mCherry mRNA (~1,000 nt), IGROV1 cells) was “Bright mCherry expression” and the “formulation with the best luciferase editing” value (HeLa-Luc-Cas9 cells; [2]) was 7.5:1 weight ratio and 0.5% PEG. The “sgLuc delivery by formulations with tuned PEG content and weight ratio” value (HeLa-Luc-Cas9 cells; [2]) was “potent”, the “sgRNA (sgLuc) delivery, rank among lead ZALs” value (HeLa-Luc-Cas9 cells; lead ZALs from the siRNA screen, HeLa-Luc-Cas9 cells, 48 h) was “most highly potent; also recorded: efficacious” and the “luciferase expression versus sgRNA dose” value (HeLa-Luc-Cas9 cells; sgLuc ZNPs, HeLa-Luc-Cas9 cells) was “dose-dependent decrease”. It also gave a luciferase silencing (HeLa-Luc-Cas9 cells; sgRNA at 14.7 nM and 7.4 nM, 48 h, ZNPs 50:38.5:1 ZAL:cholesterol:PEG-lipid, 20:1 ZAL:sgRNA weight ratio) greater than 95%.
